Where a name gives a salt, the structure may show the parent alone.

T2 sequence (P42338 109-1070): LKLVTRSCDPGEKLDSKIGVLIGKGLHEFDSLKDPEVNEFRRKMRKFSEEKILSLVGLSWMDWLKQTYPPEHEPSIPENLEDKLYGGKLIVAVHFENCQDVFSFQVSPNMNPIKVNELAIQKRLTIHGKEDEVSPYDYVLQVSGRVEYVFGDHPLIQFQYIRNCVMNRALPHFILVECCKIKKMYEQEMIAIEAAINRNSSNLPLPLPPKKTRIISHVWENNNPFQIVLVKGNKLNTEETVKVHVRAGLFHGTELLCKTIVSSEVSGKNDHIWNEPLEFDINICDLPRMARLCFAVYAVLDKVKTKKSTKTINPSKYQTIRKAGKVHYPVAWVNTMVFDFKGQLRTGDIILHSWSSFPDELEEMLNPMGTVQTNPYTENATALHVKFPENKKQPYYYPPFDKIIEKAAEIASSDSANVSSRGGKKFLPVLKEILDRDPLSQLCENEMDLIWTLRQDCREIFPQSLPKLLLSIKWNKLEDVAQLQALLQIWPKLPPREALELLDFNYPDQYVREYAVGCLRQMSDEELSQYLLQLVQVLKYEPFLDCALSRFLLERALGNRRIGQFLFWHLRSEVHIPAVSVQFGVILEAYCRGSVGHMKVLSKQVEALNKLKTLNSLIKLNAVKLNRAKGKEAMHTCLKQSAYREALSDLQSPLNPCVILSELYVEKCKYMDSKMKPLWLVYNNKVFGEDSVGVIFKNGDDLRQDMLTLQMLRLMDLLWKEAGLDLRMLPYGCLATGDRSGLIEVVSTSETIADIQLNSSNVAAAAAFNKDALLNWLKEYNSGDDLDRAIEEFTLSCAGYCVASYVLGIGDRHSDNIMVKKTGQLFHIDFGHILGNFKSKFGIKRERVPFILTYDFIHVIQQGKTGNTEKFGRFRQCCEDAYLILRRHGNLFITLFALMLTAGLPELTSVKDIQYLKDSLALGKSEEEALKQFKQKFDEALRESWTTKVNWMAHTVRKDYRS

The target in one assay is T1, PI3Kα (Homo sapiens, UniProt P42336).
T1 construct: His6 (N); made in house; host or cells: S. frugiperda 9 (Sf9) insect cells
T1 sequence (P42336 109-1068): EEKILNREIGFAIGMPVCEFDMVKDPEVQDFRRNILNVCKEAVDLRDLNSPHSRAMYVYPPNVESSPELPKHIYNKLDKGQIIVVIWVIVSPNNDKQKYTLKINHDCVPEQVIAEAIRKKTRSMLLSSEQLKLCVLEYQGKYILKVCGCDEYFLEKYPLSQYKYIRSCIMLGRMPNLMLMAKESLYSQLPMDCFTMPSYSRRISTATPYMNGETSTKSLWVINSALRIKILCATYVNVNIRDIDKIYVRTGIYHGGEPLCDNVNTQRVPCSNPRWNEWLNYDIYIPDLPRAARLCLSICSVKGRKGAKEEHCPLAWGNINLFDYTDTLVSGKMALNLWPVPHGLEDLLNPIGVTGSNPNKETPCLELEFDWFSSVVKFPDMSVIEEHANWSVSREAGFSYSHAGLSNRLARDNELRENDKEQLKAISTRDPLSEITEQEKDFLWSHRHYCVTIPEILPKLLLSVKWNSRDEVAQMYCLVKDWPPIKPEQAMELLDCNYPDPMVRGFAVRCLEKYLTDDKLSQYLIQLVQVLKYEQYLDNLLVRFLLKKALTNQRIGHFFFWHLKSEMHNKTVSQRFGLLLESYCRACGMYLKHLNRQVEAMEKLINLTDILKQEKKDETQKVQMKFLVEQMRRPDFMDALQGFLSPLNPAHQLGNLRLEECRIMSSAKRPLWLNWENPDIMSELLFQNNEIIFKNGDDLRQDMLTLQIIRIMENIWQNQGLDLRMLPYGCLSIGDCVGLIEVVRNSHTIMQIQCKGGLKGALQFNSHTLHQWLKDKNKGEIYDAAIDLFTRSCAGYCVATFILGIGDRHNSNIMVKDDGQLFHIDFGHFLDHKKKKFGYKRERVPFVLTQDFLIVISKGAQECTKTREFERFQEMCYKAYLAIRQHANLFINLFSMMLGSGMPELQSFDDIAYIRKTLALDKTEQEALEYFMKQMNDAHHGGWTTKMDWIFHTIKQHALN
Put plainly: Solid-phase lipid kinase assay of PI3Kα (p110α assay). The note with it: recombinant truncated human p110α, 10 μM ATP. It is filed as biochemical. An excerpt: [Determination of IC50 Values of Compounds in Kinase Assay of PI3Kα]
LABORATORIES (Toronto, Canada). […] [γ^33P]ATP and unlabeled ATP were purchased from […] […] BIOTECH (Buckinghamshire, UK) and ROCHE DIAGNOSTICS (Mannheim, Germany), respectively. Scintillation cocktails and MicroScint PS™ were purchased from PACKARD (Meriden, Conn.). Maxisorp™ plates were purchased from NALGE NUNC INTERNATIONAL K.K. (Tokyo, Japan). All other chemicals not further specified were from WAKO PURE CHEMICALS (Osaka, Japan).
The plates were subsequently air-dried by incubation for at least 2 hours in a fume hood. The reaction was set up by mixing 25 μL/well of assay buffer 2×(100 mM MOPSO/NaOH, 0.2 M NaCl, pH 7.0, 8 mM MgCl2, 2 mg/mL BSA (fatty acid-free)), and 7.5 ng/well PI3Kα in the lipid pre-coated plate. 100× test compounds were added in 2% DMSO. The reaction was started by adding 20 μL/well of ATP mix (final 10 μM ATP; 0.05 μCi/well [γ^33P]ATP). After incubation at RT for 2 hours, the reaction was terminated by adding 50 μl/well stop solution (50 mM EDTA, pH 8.0). The plate was then washed twice with Tris-buffered saline (TBS, pH 7.4). MicroScint PS™ (PACKARD) scintillation mix was added at 100 μL/well, and radioactivity was counted using a TopCount™ (PACKARD) scintillation counter.
The inhibition percent at each concentration of compound was calculated, and IC50 values were determined from the inhibition of curve.
Consider `COc1c(OCCCN2CCOCC2)ccc2c1N=C(NC(=O)c1cnc(N3CCOCC3)nc1)N1CCN=C21` [Example 49, N-[7-methoxy-8-(3-morpholin-4-ylpropoxy)-2,3-dihydroimidazo[1,2-c]quinazolin-5-yl]-2-morpholin-4-ylpyrimidine-5-carboxamide], for which the 50% inhibitory concentration (IC50) fell in the range of 10 to 100 nM. As to `COc1c(OCCCN2CCOC[C@@H]2C)ccc2c1N=C(NC(=O)c1cccnc1)N1CCN=C21` [Example 17, N-{7-methoxy-8-[3-(3-methylmorpholin-4-yl)propoxy]-2,3-dihydroimidazo[1,2-c]quinazolin-5-yl}nicotinamide], the IC50 is 10 to 100 nM.

A further assay deals with IGF-1 induced AKT phosphorylation in A549 cells. In words: IGF-1 induced AKT phosphorylation assay (A549 cell assay). Type of assay: cell-based. The following applies: Homo sapiens; A549 cells, 25 ng/ml IGF-1, phospho-AKT(Ser 473); read-out: average IC50 in the A549 cell assay. The source says: [Determination of IC50 Values of Compounds in Cell Based Assays of PI3K Activity] 96-well collagen treated clear bottom/black sided Costar plates were purchased from CORNING LIFE SCIENCES (Corning, N.Y.; at.#3904). Gibco RPMI medium (Cat.#11875), Biosource anti-phospho-AKT([…]) antibody (Cat.#44-621G) and recombinant IGF-1 (Cat.#PHG0074) were purchased from INVITROGEN (Carlsbad, Calif.). The secondary donkey anti-rabbit IgG horse radish peroxidase conjugate (Cat. #N[…]) and ECL chemiluminesence reagent (Cat.#RPN2209) were purchased from […] (Buckinghamshire, UK). Cell culture tested bovine serum albumin solution (35% in DPBS; Cat.#A7979) and all other chemicals were purchased from SIGMA (St. Louis, Mo.). The Wallac Victor2 1420 Multilabel HTS Counter was purchased from […] (Wellesley, Mass.) […] All wells (except no IGF-1 controls) were then treated with 25 ng/ml IGF-1 for 10 minutes at 37° C. in a 5% CO2 incubator. Following removal of the supernatants and washing with the wells with TBS (50 mM Tris pH 8.0 containing 138 mM NaCL and 27 mM KCl), 200 µL of 3.7% formaldehyde in TBS was added to each well, and the plate was incubated at 4° C. for 10 minutes. Supernatants were once again removed and replaced with 50 μL Methanol (-20° C.) and the plate incubated at 4° C. for 5 minutes. 200 μL of 0.1% BSA in TBS was then added to each well and the plate incubated at room temperature for 1⁄2 hour. Supernatants were removed and 50 μL of a solution comprising the primary anti-phospho-AKT([…]) antibody diluted 1:250 in TBS containing 0.1% BSA was added to each well (except control/background wells). The plate was then incubated for 11⁄2 hour at room temperature. Supernatants were removed, each well was washed 3 times with 200 μL TBS, and 100 μL of a solution containing the secondary donkey anti-rabbit IgG antibody HRP-conjugate diluted 1:100 in TBS-T (TBS containing 0.1% triton). Plates were then incubated for 1 hour at room temperature. After removing the secondary antibody, each well was washed 6 times with cold TBS-T, 100 μL of ECL was added to each well, and the plate was placed on an orbital shaker for 1 minute. The plates were then read on a Wallac Victor2 1420 Multilabel HTS Counter using the luminometry window (maximum light detection is measured at […]). IC50 values were determined from the inhibition curve.
Regarding `COc1c(OCCCN2CCOCC2)ccc2c1N=C(NC(=O)c1ccc(N3CC[C@H](N)C3)nc1)N1CCN=C21` [Example 51, 6-[(3S)-3-aminopyrrolidin-1-yl]-N-[7-methoxy-8-(3-morpholin-4-ylpropoxy)-2,3-dihydroimidazo[1,2-c]quinazolin-5-yl]nicotinamide hydrochloride hydrate], the IC50 was in the range of 100 to 1000 nM. With `CCN(CC)CCOc1ccc2c(c1OC)N=C(NC(=O)c1cccnc1)N1CCN=C21` [Example 87, N-{8-[2-(diethylamino)ethoxy]-7-methoxy-2,3-dihydroimidazo[1,2-c]quinazolin-5-yl}nicotinamide], the IC50 was in the range of 100 to 1000 nM. With `COc1c(OCCCN2CCOC(CO)C2)ccc2c1N=C(NC(=O)c1cccnc1)N1CCN=C21` (stereo not shown) [Example 18, N-(8-{3-[2-(hydroxymethyl)morpholin-4-yl]propoxy}-7-methoxy-2,3-dihydroimidazo[1,2-c]quinazolin-5-yl)nicotinamide], the IC50 is less than 100 nM. `COc1c(OCCCN2CCOCC2)ccc2c1N=C(NC(=O)c1cnc(NCCO)nc1)N1CCN=C21` [Example 40, 2-[(2-hydroxyethyl)amino]-N-[7-methoxy-8-(3-morpholin-4-ylpropoxy)-2,3-dihydroimidazo[1,2-c]quinazolin-5-yl]pyrimidine-5-carboxamide]: the IC50 is 100 to 1000 nM. `COc1c(OCCCN2CCOCC2)ccc2c1N=C(NC(=O)c1ccc(NC(=O)NC(C)C)nc1)N1CCN=C21` [Example 71, 6-{[(isopropylamino)carbonyl]amino}-N-[7-methoxy-8-(3-morpholin-4-ylpropoxy)-2,3-dihydroimidazo[1,2-c]quinazolin-5-yl]nicotinamide]: the IC50 was less than 100 nM. Turning to `COc1c(OCCCN2CCOCC2)ccc2c1N=C(NC(=O)c1sc(N)nc1C)N1CCN=C21` [Example 6, 2-amino-N-[7-methoxy-8-(3-morpholin-4-ylpropoxy)-2,3-dihydroimidazo[1,2-c]quinazolin-5-yl]-4-methyl-1,3-thiazole-5-carboxamide], the IC50 is less than 100 nM. `COc1c(OCCCN(C)C)ccc2c1N=C(NC(=O)c1cnc(NCCN(C)C)nc1)N1CCN=C21` [Example 36, 2-{[2-(dimethylamino)ethyl]amino}-N-{8-[3-(dimethylamino)propoxy]-7-methoxy-2,3-dihydroimidazo[1,2-c]quinazolin-5-yl}pyrimidine-5-carboxamide]: the half-inhibitory concentration (IC50) fell in the range of 100 to 1000 nM. Consider `COc1c(OCCN(C)C)ccc2c1N=C(NC(=O)c1cncnc1)N1CCN=C21` [Example 9, N-{8-[2-(dimethylamino)ethoxy]-7-methoxy-2,3-dihydroimidazo[1,2-c]quinazolin-5-yl}pyrimidine-5-carboxamide], for which the IC50 lay in the range of 100 to 1000 nM. Still for that read-out and setting: as for `COc1c(OCCCN2CCOCC2)ccc2c1N=C(NC(=O)c1ccnc(N)c1)N1CCN=C21` [Example 5, 2-amino-N-[7-methoxy-8-(3-morpholin-4-ylpropoxy)-2,3-dihydroimidazo[1,2-c]quinazolin-5-yl]isonicotinamide], the figure is 100 to 1000 nM; as for `COc1c(OCCCN2CCOCC2)ccc2c1N=C(NC(=O)c1ccc(NCc3ccco3)nc1)N1CCN=C21` [Example 54, 6-[(2-furylmethyl)amino]-N-[7-methoxy-8-(3-morpholin-4-ylpropoxy)-2,3-dihydroimidazo[1,2-c]quinazolin-5-yl]nicotinamide], 100 to 1000 nM. As to `COc1c(OCCCN2CCOCC2)ccc2c1N=C(NC(=O)c1ccc(F)nc1)N1CCN=C21` [Example 78, 6-fluoro-N-[7-methoxy-8-(3-morpholin-4-ylpropoxy)-2,3-dihydroimidazo[1,2-c]quinazolin-5-yl]nicotinamide], the 50% inhibitory concentration (IC50) lay in the range of 100 to 1000 nM. In the case of `CNC(=O)Nc1ccc(C(=O)NC2=Nc3c(ccc(OCCCN4CCOCC4)c3OC)C3=NCCN23)cn1` [Example 66, N-[7-methoxy-8-(3-morpholin-4-ylpropoxy)-2,3-dihydroimidazo[1,2-c]quinazolin-5-yl]-6-{[(methylamino)carbonyl]amino}nicotinamide], the concentration for half-maximal inhibition (IC50) is less than 100 nM. `COc1c(OCCCN)ccc2c1N=C(NC(=O)c1cccnc1)N1CCN=C21` [Example 92, N-[8-(3-aminopropoxy)-7-methoxy-2,3-dihydroimidazo[1,2-c]quinazolin-5-yl]nicotinamide trifluoroacetate]: the half-maximal inhibitory concentration (IC50) is greater than 1000 nM. Turning to `CCNc1nc(C(=O)NC2=Nc3c(ccc(OCCCN4CCOCC4)c3OC)C3=NCCN23)cs1` [Example 80, 2-(ethylamino)-N-[7-methoxy-8-(3-morpholin-4-ylpropoxy)-2,3-dihydroimidazo[1,2-c]quinazolin-5-yl]-1,3-thiazole-4-carboxamide], the IC50 fell in the range of 100 to 1000 nM. Take `COCCNc1ncc(C(=O)NC2=Nc3c(ccc(OCCCN4CCOCC4)c3OC)C3=NCCN23)cn1` [Example 44, 2-[(2-methoxyethyl)amino]-N-[7-methoxy-8-(3-morpholin-4-ylpropoxy)-2,3-dihydroimidazo[1,2-c]quinazolin-5-yl]pyrimidine-5-carboxamide]: the IC50 is greater than 1000 nM.

As for `COc1ncc(C(=O)NC2=Nc3c(ccc(OCCCN4CCOCC4)c3OC)C3=NCCN23)cn1` [Example 95, 2-methoxy-N-[7-methoxy-8-(3-morpholin-4-ylpropoxy)-2,3-dihydroimidazo[1,2-c]quinazolin-5-yl]pyrimidine-5-carboxamide], the IC50 was less than 100 nM. Same read-out and setting: as for `COc1c(OCCN(C(C)C)C(C)C)ccc2c1N=C(NC(=O)c1cccnc1)N1CCN=C21` [Example 86, N-{8-[2-(diisopropylamino)ethoxy]-7-methoxy-2,3-dihydroimidazo[1,2-c]quinazolin-5-yl}nicotinamide], the figure is 100 to 1000 nM. For the compound `COc1c(OCCCN2CCOCC2)ccc2c1N=C(NC(=O)c1ccc(N(C)C)nc1)N1CCN=C21` [Example 73, 6-(dimethylamino)-N-[7-methoxy-8-(3-morpholin-4-ylpropoxy)-2,3-dihydroimidazo[1,2-c]quinazolin-5-yl]nicotinamide], the half-maximal inhibitory concentration (IC50) lay in the range of 100 to 1000 nM.

Another assay addresses T2, PI3Kβ (Homo sapiens, UniProt P42338).
T2 construct: His6 (N); made in house; host or cells: S. frugiperda 9 (Sf9) insect cells
In words: Isozyme selectivity test: kinase assay of PI3Kβ (p110β assay). It is filed as biochemical. The following applies: recombinant truncated p110β, 7.5 ng protein/well. An excerpt:
[Isozyme Selectivity Test in PI3K]
Determination of IC50 Values of Compounds in Kinase Assays of PI3Kβ and PI3Kγ
With `COc1c(OCCCN2CCOCC2)ccc2c1N=C(NC(=O)c1cnc(N3CCOCC3)nc1)N1CCN=C21` [Example 49, N-[7-methoxy-8-(3-morpholin-4-ylpropoxy)-2,3-dihydroimidazo[1,2-c]quinazolin-5-yl]-2-morpholin-4-ylpyrimidine-5-carboxamide], the half-inhibitory concentration (IC50) fell in the range of 10 to 100 nM. As for `COc1c(OCCCN2CCOC[C@@H]2C)ccc2c1N=C(NC(=O)c1cccnc1)N1CCN=C21` [Example 17, N-{7-methoxy-8-[3-(3-methylmorpholin-4-yl)propoxy]-2,3-dihydroimidazo[1,2-c]quinazolin-5-yl}nicotinamide], the half-maximal inhibitory concentration (IC50) lay in the range of 10 to 100 nM.

The values are drawn from patent USRE46856E1, “Substituted 2,3-dihydroimidazo[1,2-c]quinazoline derivatives useful for treating hyper-proliferative disorders and diseases associated with angiogenesis” (Bayer Intellectual Property GmbH, priority 2006, dated 2018).
